These results are taken from PMC6066796 (Antiviral Research, 2018).

Like-named read-outs stand apart in the source and are kept apart here. Bounds are passed on as bounds.

In series [1] the test system is EBOV. The conditions noted are these: at 1000 μM; cited from earlier work.
Series [2] has as its system Huh7 cells. The conditions noted are these: human.
Series [3] relates to NiV-GFP2AM. The series can be described thus: microbe, parasite or virus in culture. Format: cell-based, Nipah virus.
For series [4], the system named is NCI-H358 cells. To be noted: human.
The test system of series [5] is EBOV-ZsG. The series can be described thus: microbe, parasite or virus in culture. Format: cell-based, Ebola virus.
For series [6], the system named is SK-N-MC cells. To be noted: human.
Series [7] deals with SUDV (Gulu variant). Format: cell-based.
The subject of series [8] is rMV^EZEGFP(3). Format: cell-based, Measles virus.
Series [9] relates to NCI-H358 cells.
In series [10] the test system is EBOV (Makona variant). Format: cell-based, Ebola virus.
Series [11] has as its system recombinant EBOV (Mayinga variant). It counts as cell-based, Ebola virus.
For series [12], the system named is hPIV3-GFP. As to the kind of experiment: microbe, parasite or virus in culture. Format: cell-based, human parainfluenza virus 3.
Series [13] has as its system reporter EBOVs. It counts as cell-based, Ebola virus.
In series [14] the test system is HeLa cells. To be noted: human.
Series [15] concerns rgRSV224. The series can be described thus: microbe, parasite or virus in culture. Format: cell-based, respiratory syncytial virus.
The subject of series [16] is NiV (Malaysian genotype). The series can be described thus: microbe, parasite or virus in culture. It counts as cell-based, Nipah virus.
The subject of series [17] is NiV-GFP2AM. The series can be described thus: microbe, parasite or virus in culture. Format: cell-based, Nipah virus. The source holds these as a separate data set.
The test system of series [18] is MARV-ZsG. It counts as cell-based, Marburg virus.
Series [19] concerns HeV. The series can be described thus: microbe, parasite or virus in culture. Format: cell-based, Hendra virus.
Series [20] concerns RVFV-GFP, ZH501. As to the kind of experiment: microbe, parasite or virus in culture. Format: cell-based, Rift Valley Fever virus.
Series [21] has as its system henipavirus (NiV, HeV). It counts as cell-based, Nipah virus, Hendra virus.
Series [22] concerns SUDV (Gulu variant). Format: cell-based. This is another data set of the same source.
Series [23] has as its system NiV and EBOV. It counts as cell-based, Nipah virus, Ebola virus.
[24] abbreviates: Henipavirus nipahense, SAEC, in Homo sapiens.

`NC(=O)c1nc(F)c[nH]c1=O` [Favipiravir]: the “Decrease of EBOV infectious yield” value in series [1] is listed as 4 logTCID50/mL.

`[N-]=[N+]=N[C@]1(CO)O[C@@H](n2ccc(N)nc2=O)[C@H](O)[C@@H]1O` [R1479, 4′-azidocytidine]: the “R1479-TP level (intracellular triphosphate)” value in series [2] was 18 ± 0.6 pmol/million cells; in [4], 391 ± 72 pmol/million cells; in series [6] it was 42 ± 10 pmol/million cells; in [14] it was 136 ± 21 pmol/million cells. In addition, the EC50 in series [3] (setting [24]) is more than 50000 nM; in series [5] (Zaire ebolavirus, NCI-H358), 2100 nM; in series [10] it was 2100 nM; in series [11], 2600 nM; in series [12] (Human respirovirus 3, NCI-H358) it was 3200 nM; in series [15] (human respiratory syncytial virus, NCI-H358) it was 3300 nM. Further, the EC50 in series [16] (Henipavirus nipahense, NCI-H358) is 2900 nM; in [17] (setting [24]), more than 50000 nM; in series [19] (Henipavirus hendraense, NCI-H358) it was 2100 nM; in [20] (Rift Valley fever virus, NCI-H358) it was more than 50000 nM. In addition, the “SI (selective index)” value in series [5] is 2.1 ± 0.07 [>47]; in series [8], 1.9 ± 0.12 [>52]; in series [12], 3.2 ± 0.50 [>32]; in [15] it was 3.3 ± 0.39 [>30]; in series [16], 2.9 ± 0.95 [>34]; in series [19], 2.1 ± 0.57 [>47]. Moreover, the “Reduction of infectious SUDV titers” value in [7] (at 25 μM) is > 4 orders of magnitude. Moreover, the “Cytotoxicity (cell viability)” value in series [9] is reported as “mild cytotoxicity”. The “Inhibition of FFU formation” value in series [10] is on record as “dose-dependent inhibition”. The “Antiviral activity against reporter EBOVs in Huh7 cells” value in [13] was “significantly decreased antiviral activity”. Further, the “Inhibition of MARV infection by FFU assay” value in [18] is “did not show any significant inhibition”.

For the compound “2′-monofluoro-4′-azidocytidine [2′F-4′N3-C]”, the “Effect on CPE” value in [3] is on record as “completely abolished”. Also, the EC50 is 3850 nM in series [5]; 270 nM in series [8]; 7790 nM in series [11]; 160 nM in series [12]; 280 nM in series [15]; approximately 10000 nM in series [22]. Moreover, the EC50 in series [18] and in series [20] was more than 50000 nM throughout. Further, the “Reduction of infectious SUDV yield” value in series [7] is reported as “approximately 1.5 orders of magnitude”. Further, in series [21], the “Reduction of infectious henipavirus yields” value is on record as 4–5 orders of magnitude. Also, the “Inhibition of FFU formation” value in series [10] is given as “did not detect significant inhibition”. The “Antiviral activity against reporter EBOVs in Huh7 cells” value in [13] is reported as “significantly decreased antiviral activity”. In addition, the “Effect on GFP expression” value in [17] is given as “completely abolished”. The “Inhibition of MARV infection by FFU assay” value in series [18] is on record as “did not show any significant inhibition”.

Consider `[N-]=[N+]=N[C@]1(CO)O[C@@H](n2ccc(N)nc2=O)[C@@H](O)[C@@H]1O` [RO-9187, 2′-deoxy-2′-β-hydroxy-4′-azidocytidine], for which the “Antiviral activity against NiV and EBOV” value in [23] is listed as “little to no antiviral activity”.

For `[N-]=[N+]=N[C@]1(CO)O[C@@H](n2ccc(N)nc2=O)[C@@H](F)[C@@H]1O` [RO-0622, 2′-deoxy-2′-β-fluoro-4′-azidocytidine], in [23], the “Antiviral activity against NiV and EBOV” value is recorded as “little to no antiviral activity”.
